{
  "source": "patent US10272261B2",
  "about": "“Methods and compositions for treating ocular glaucoma” (Massachusetts Eye and Ear Infirmary, priority 2004, dated 2019)",
  "origin": "cited, not measured here",
  "system": "pigmented rabbits",
  "details": "pigmented rabbits compared with albino rabbits; cited from earlier work",
  "data": [
    {"substance": "chloro-aluminum sulfonated phthalocyanine [CASPc]", "values": [
      {"measurement": "duration of IOP reduction by ciliary body PDT", "result": "lasted a relatively shorter period than that of albino rabbits"}
    ]}
  ]
}
